Measured values: patent publication US20250197354A1, “SOLID STATE FORMS OF LX9211 AND SALTS THEREOF” (TEVA PHARMACEUTICALS INTERNATIONAL GMBH, priority 2022, published 2025)
In brackets after ≈: the same amount, converted by molar mass.

Experiments:
Assay type in all cases: physicochemical
[1] = Solubility in water and pH 4.5 buffer, HPLC; conditions: 24 hours, 37±0.2° C.; for Solubility (mg/mL) pH 4.5: pH 4.5 buffer (USP)
Procedure: The solubilities of LX9211 dihydrogen phosphate forms S1 and S3 and LX9211 dihydrogen phosphate and urea, and LX9211 free base form A were determined in water and pH 4.5 buffer as follows:
About 80 mg of samples of the starting materials were weighed into 15 ml PP centrifuge tubes. 8 ml of appropriate buffer solution (pH 4.5 according to USP 35-NF 30 Buffer Solutions) or water was added. Tubes were stoppered and shaken at 160 rpm for 24 hours at 37±0.2° C. in an incubator shaker (Innova 4080, New Brunswick Scientific). Suspensions were filtered through 0.45 μm […] syringe filter (CHROMAFIL PTFE-45/25, Macherey-Nagel). Filtrates were sampled and concentration of the starting material was determined by HPLC according to corresponding standard.

[2] = Strong grinding and solvent drop grinding, XRPD analysis
Procedure: (§1) Sample after being powdered in a mortar and pestle is applied directly on a silicon plate holder. The X-ray powder diffraction pattern was measured with Philips X'Pert PRO X-ray powder diffractometer, equipped with Cu irradiation source=1.54184 Å (Ångström), X'Celerator (2.022° 2θ) detector. Scanning parameters: angle range: 3-40 deg., step size 0.0167, time per step 37 s, continuous scan.
(§2) Samples of LX9211 dihydrogen phosphate form S1 were subjected to strong grinding and to solvent drop grinding in acetone, ethanol (96%), and 2-propanol). Grinding was carried out on the samples alone, or in the presence of the solvent. In these experiments, about 20 mg of the sample is placed in a mortar and ground with a pestle for 2 minutes. The solvent, when used, as added to the crystalline material before grinding, in a volume of 10 microliters. XRPD analysis performed on each of the samples after the grinding experiment, confirmed no change in the starting material (Table 4):
as §2, with “S3” for “S1”, “6):” for “4):”
as §2, with “camsylate” for “dihydrogen phosphate”, “K1” for “S1”, “8):” for “4):”
as §2, with “hemihydrogen” for “dihydrogen”, “S5” for “S1”, “10): […]” for “4):”

[3] = Compression at a pressure of 1 ton, XRPD analysis; conditions: hydraulic press, 2 minutes
Procedure: as §1
A sample of LX9211 dihydrogen phosphate form SI was subjected to a pressure of 1 ton (Perkin Elmer Hydraulic Press, set to 1 tons).
A sample of LX9211 dihydrogen phosphate form S3 was subjected to a pressure of 1 ton (Perkin Elmer Hydraulic Press, set to 1 tons).
A sample of LX9211 camsylate form K1 was subjected to a pressure of 1 ton (Perkin Elmer Hydraulic Press, set to 1 tons).
A sample of LX9211 hemihydrogen phosphate form S5 was subjected to a pressure of 1 ton (Perkin Elmer Hydraulic Press, set to 1 tons).

DVS water uptake = conditions: at least up to 90% RH
[4] = 2-propanol 10 microliters, solvent drop grinding for 2 minutes
[5] = Acetone 10 microliters, solvent drop grinding for 2 minutes
[6] = Ethanol (96%) 10 microliters, solvent drop grinding for 2 minutes
[7] = No solvent, strong grinding in mortar for 2 minutes

SMILES | Solubility (mg/mL) pH 4.5 [1] [mg/mL] | Solubility (mg/mL) water [1] [mg/mL] | XRPD analysis results after grinding [2, 4] | XRPD analysis results after grinding [2, 5] | XRPD analysis results after grinding [2, 6] | XRPD analysis results after grinding [2, 7] | XRPD analysis after pressure [3] | hygroscopicity (DVS) (DVS water uptake) | water uptake (DVS) (DVS water uptake)
CC(C)C[C@](C)(N)COc1ccc(-c2ccnc(C(F)F)c2)nc1C(F)F [LX9211 dihydrogen phosphate and urea form U1] | 16.4 | 24.4 | – | – | – | – | – | – | –
CC(C)C[C@](C)(N)COc1ccc(-c2ccnc(C(F)F)c2)nc1C(F)F [LX9211 free base form A, (S)-1-((2′,6-bis(difluoromethyl)-[2,4′-bipyridin]-5-yl)oxy)-2,4-dimethylpentan-2-amine] | 9.7 | 0.1 (≈ 259 µM) | – | – | – | – | – | – | –
CC(C)C[C@](C)(N)COc1ccc(-c2ccnc(C(F)F)c2)nc1C(F)F [LX9211 dihydrogen phosphate form S1] | 8.1 | 25.0 | No polymorphic conversion | No polymorphic conversion | No polymorphic conversion | No polymorphic conversion | no polymorphic conversion | – | –
CC(C)C[C@](C)(N)COc1ccc(-c2ccnc(C(F)F)c2)nc1C(F)F [LX9211 dihydrogen phosphate form S3] | 13.8 | 25.0 | No polymorphic conversion | No polymorphic conversion | No polymorphic conversion | No polymorphic conversion | no polymorphic conversion | – | –
CC(C)C[C@](C)(N)COc1ccc(-c2ccnc(C(F)F)c2)nc1C(F)F [LX9211 camsylate form K1] | – | – | No polymorphic conversion | No polymorphic conversion | No polymorphic conversion | No polymorphic conversion | no polymorphic conversion | non-hygroscopic | less than 0.1%
